This is an account of results in patent US20260201008A1, “SECRETIN-DERIVED GLP1R SELECTIVE AGONISTS” (GUBRA A/S, priority 2023, published 2026).

Structures are written as SMILES. Numbered stars: 1 amine (or outer) side, 2 acyl side, 3 side chain; on linkers, the order of the positions; unused ones are H or OH. Square brackets hold non-standard residues; d marks the D form. Side chains are listed from the residue outwards. Peptide text beside a SMILES is read from it. * marks the point of attachment. C20 diacid = O=C(O)CCCCCCCCCCCCCCCCCCC(=O)*; γGlu = O=C(O)[C@H](CCC(=O)[*:2])N[*:1]; AEEA = NCCOCCOCC(=O)O; Aib = CC(C)(N)C(=O)O

In one data set the target is GLP1R (Homo sapiens, UniProt P43220). The data set is described as follows: hGLP1R potency, cAMP accumulation in CHO-K1 cells stably overexpressing hGLP1R. It counts as cell-based. Also on record: host or cells: CHO-K1. The settings on record: for EC50: cAMP accumulation, CHO-K1 cells overexpressing hGLP1R, read-out: hGLP1R pEC50 (converted); for SCTR EC50/GLP1R EC50 ratio: selectivity for hGLP1R over hSCTR, cAMP accumulation in CHO-K1 cells. Put shortly: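 Cells were plated in DPBS with 0.05% casein and 0.5 mM IBMX, then stimulated for 30 min at room temperature with test compound. cAMP was read by TR-FRET after one hour. EC50 came from variable-slope sigmoid nonlinear regression; purified peptides ran as 11-point 3-fold series, n=2.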
GLP1R, sequence (P43220 24-463): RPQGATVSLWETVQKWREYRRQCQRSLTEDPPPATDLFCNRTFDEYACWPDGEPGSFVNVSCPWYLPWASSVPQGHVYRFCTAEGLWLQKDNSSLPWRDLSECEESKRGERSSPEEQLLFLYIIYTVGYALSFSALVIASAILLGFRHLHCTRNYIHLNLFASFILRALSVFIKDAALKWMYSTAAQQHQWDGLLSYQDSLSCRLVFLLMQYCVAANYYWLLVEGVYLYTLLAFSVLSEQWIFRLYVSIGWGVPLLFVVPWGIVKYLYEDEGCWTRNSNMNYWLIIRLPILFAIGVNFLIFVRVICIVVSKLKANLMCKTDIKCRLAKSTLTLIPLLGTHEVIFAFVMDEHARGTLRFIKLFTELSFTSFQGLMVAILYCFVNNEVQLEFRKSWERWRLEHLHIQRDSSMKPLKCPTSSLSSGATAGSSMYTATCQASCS

The nature of data set [1]: Fibril formation of crude library peptides (Thioflavin T). It counts as physicochemical. Further details: key: average ThT fluorescence emission at 480 nm (ex 450 nm), raw units. The settings on record: Physical stability of peptides. In outline: (§1)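 Values reflect mean ThT emission (ex 450, em 480 nm) over 72 h at 40° C, read every 10 min after 5 min shaking at 700 rpm, plus a single initial absorbance at 600 nm for turbidity. Peptides were at 267 μM, pH 4.0 acetate or pH 7.0 phosphate (50 mM), with 4 μM ThT.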

The nature of data set [2]: Turbidity of crude library peptides (absorbance at 600 nm). The conditions noted are these: Physical stability of peptides. It counts as physicochemical. In outline: as §1
A further data set addresses SCTR (Homo sapiens, UniProt P47872). The experiment in a line: hSCTR potency, cAMP accumulation in CHO-K1 cells stably overexpressing hSCTR. It counts as cell-based. The conditions noted are these: cAMP accumulation, CHO-K1 cells overexpressing hSCTR; read-out: hSCTR pEC50 (converted). Further details: alternatively Euroscreen ES-712-AF; FAST-0161L; host or cells: CHO-K1. In outline:
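Division-arrested CHO-K1 cells stably expressing hSCTR were plated in DPBS with 0.05% casein and 0.5 mM IBMX, then stimulated with test peptide for 30 min at room temperature. cAMP was read by HTRF after one hour. EC50 came from variable-slope sigmoidal nonlinear regression.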

SCTR, sequence (P47872 23-440): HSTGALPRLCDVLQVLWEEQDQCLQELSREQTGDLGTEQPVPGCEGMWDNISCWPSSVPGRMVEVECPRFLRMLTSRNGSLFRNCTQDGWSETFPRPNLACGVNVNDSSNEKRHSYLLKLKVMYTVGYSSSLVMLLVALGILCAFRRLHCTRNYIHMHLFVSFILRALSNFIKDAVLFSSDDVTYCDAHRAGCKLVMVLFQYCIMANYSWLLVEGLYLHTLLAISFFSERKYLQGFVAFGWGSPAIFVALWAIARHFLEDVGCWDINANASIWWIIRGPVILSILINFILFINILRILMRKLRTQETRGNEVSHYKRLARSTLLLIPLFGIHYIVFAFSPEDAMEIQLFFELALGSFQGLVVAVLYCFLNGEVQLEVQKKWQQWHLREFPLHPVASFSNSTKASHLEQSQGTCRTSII

For the compound `CC(C)C[C@H](NC(=O)[C@H](Cc1ccccc1)NC(=O)[C@H](CCCNC(=N)N)NC(=O)[C@H](CCC(N)=O)NC(=O)[C@H](CC(C)C)NC(=O)C(C)(C)NC(=O)[C@H](C)NC(=O)[C@H](CCC(=O)O)NC(=O)[C@H](CCC(=O)O)NC(=O)[C@H](CCCCNC(=O)COCCOCCNC(=O)COCCOCCNC(=O)CC[C@H](NC(=O)CCCCCCCCCCCCCCCCCCC(=O)O)C(=O)O)NC(=O)[C@H](CC(C)C)NC(=O)[C@H](Cc1ccc(O)cc1)NC(=O)[C@H](CO)NC(=O)[C@@H](NC(=O)[C@H](CC(=O)O)NC(=O)[C@H](CO)NC(=O)[C@@H](NC(=O)[C@H](Cc1ccccc1)NC(=O)[C@@H](NC(=O)CNC(=O)[C@H](Cc1c[nH]c2ccccc12)NC(=O)C(C)(C)NC(=O)[C@@H](N)Cc1c[nH]cn1)[C@@H](C)O)[C@@H](C)O)C(C)C)C(=O)N[C@@H](CCC(=O)O)C(=O)N[C@@H](Cc1c[nH]cn1)C(=O)N[C@@H](CC(C)C)C(=O)N[C@H](C(N)=O)C(C)C` [compound 160] (H-H[Aib]WGTFTSDVSYLK([AEEA-AEEA-γGlu-C20 diacid])EEA[Aib]LQRFLEHLV-NH2), on GLP1R, the EC50 is 0.794 nM and the “SCTR EC50/GLP1R EC50 ratio” value stood at 33562. For the same compound, in data set [1], the Fibril formation was determined as 4754. Also, in data set [2], the “Turbidity (pH 7)” value came to 0.09. Moreover, the EC50 at SCTR is 25100 nM.

Consider `CC(C)C[C@H](NC(=O)[C@H](Cc1ccccc1)NC(=O)[C@H](CCCNC(=N)N)NC(=O)[C@H](CCC(N)=O)NC(=O)[C@@H](NC(=O)C(C)(C)NC(=O)[C@H](C)NC(=O)[C@H](CCC(=O)O)NC(=O)[C@H](CCC(=O)O)NC(=O)[C@H](CCCCNC(=O)COCCOCCNC(=O)COCCOCCNC(=O)CC[C@H](NC(=O)CCCCCCCCCCCCCCCCCCC(=O)O)C(=O)O)NC(=O)[C@H](CC(C)C)NC(=O)[C@H](Cc1ccc(O)cc1)NC(=O)[C@H](CO)NC(=O)[C@@H](NC(=O)[C@H](CC(=O)O)NC(=O)[C@H](CO)NC(=O)[C@@H](NC(=O)[C@H](Cc1ccccc1)NC(=O)[C@@H](NC(=O)CNC(=O)[C@H](CCC(=O)O)NC(=O)C(C)(C)NC(=O)[C@@H](N)Cc1c[nH]cn1)[C@@H](C)O)[C@@H](C)O)C(C)C)C(C)C)C(=O)N[C@@H](CCC(=O)O)C(=O)N[C@@H](Cc1c[nH]cn1)C(=O)N[C@@H](CC(C)C)C(=O)N[C@H](C(N)=O)C(C)C` [compound 161] (H-H[Aib]EGTFTSDVSYLK([AEEA-AEEA-γGlu-C20 diacid])EEA[Aib]VQRFLEHLV-NH2), for which, at GLP1R, the EC50 was 0.00398 nM and the “SCTR EC50/GLP1R EC50 ratio” value is given as 42442. Besides, the Fibril formation in data set [1] came out at 3973. For the same compound, the “Turbidity (pH 7)” value in data set [2] was 0.08. Moreover, the EC50 on SCTR was 158 nM.

With `CC(C)C[C@H](NC(=O)[C@H](Cc1ccccc1)NC(=O)[C@H](CCCNC(=N)N)NC(=O)[C@H](CCC(N)=O)NC(=O)[C@@H](NC(=O)C(C)(C)NC(=O)[C@H](C)NC(=O)[C@H](CCC(=O)O)NC(=O)[C@H](CCC(=O)O)NC(=O)[C@H](CCCCNC(=O)COCCOCCNC(=O)COCCOCCNC(=O)CC[C@H](NC(=O)CCCCCCCCCCCCCCCCCCC(=O)O)C(=O)O)NC(=O)[C@H](CC(C)C)NC(=O)[C@H](Cc1ccc(O)cc1)NC(=O)[C@H](CO)NC(=O)[C@@H](NC(=O)[C@H](CC(=O)O)NC(=O)[C@H](CO)NC(=O)[C@@H](NC(=O)[C@H](Cc1ccccc1)NC(=O)[C@@H](NC(=O)CNC(=O)[C@H](CCC(=O)O)NC(=O)C(C)(C)NC(=O)[C@@H](N)Cc1c[nH]cn1)[C@@H](C)O)[C@@H](C)O)C(C)C)[C@@H](C)O)C(=O)N[C@@H](CCC(=O)O)C(=O)N[C@@H](Cc1c[nH]cn1)C(=O)N[C@@H](CC(C)C)C(=O)N[C@H](C(N)=O)C(C)C` [compound 162] (H-H[Aib]EGTFTSDVSYLK([AEEA-AEEA-γGlu-C20 diacid])EEA[Aib]TQRFLEHLV-NH2), the “SCTR EC50/GLP1R EC50 ratio” value on GLP1R is reported as 178176. Also, the Fibril formation in data set [1] is 4281. Also, the “Turbidity (pH 7)” value in data set [2] came out at 0.08. Moreover, the EC50 on SCTR was 126 nM.

As for `CC(C)C[C@H](NC(=O)[C@H](Cc1ccccc1)NC(=O)[C@H](CCCNC(=N)N)NC(=O)[C@H](CCC(N)=O)NC(=O)[C@H](CC(C)C)NC(=O)C(C)(C)NC(=O)[C@H](C)NC(=O)[C@H](CCC(=O)O)NC(=O)[C@H](CCC(=O)O)NC(=O)[C@H](CCCCNC(=O)COCCOCCNC(=O)COCCOCCNC(=O)CC[C@H](NC(=O)CCCCCCCCCCCCCCCCCCC(=O)O)C(=O)O)NC(=O)[C@H](CC(C)C)NC(=O)C(C)(C)NC(=O)[C@H](CO)NC(=O)[C@@H](NC(=O)[C@H](CC(=O)O)NC(=O)[C@H](CO)NC(=O)[C@@H](NC(=O)[C@H](Cc1ccccc1)NC(=O)[C@@H](NC(=O)CNC(=O)[C@H](CCC(=O)O)NC(=O)C(C)(C)NC(=O)[C@@H](N)Cc1c[nH]cn1)[C@@H](C)O)[C@@H](C)O)C(C)C)C(=O)N[C@@H](CCC(=O)O)C(=O)N[C@@H](Cc1c[nH]cn1)C(=O)N[C@@H](CC(C)C)C(=O)N[C@H](C(N)=O)C(C)C` [compound 163] (H-H[Aib]EGTFTSDVS[Aib]LK([AEEA-AEEA-γGlu-C20 diacid])EEA[Aib]LQRFLEHLV-NH2), on GLP1R, the EC50 was 0.0126 nM and the “SCTR EC50/GLP1R EC50 ratio” value came to 3669. The compound also had a Fibril formation in data set [1] of 3983. Besides, the “Turbidity (pH 7)” value in data set [2] turned out to be 0.08. Further, the EC50 on SCTR is 39.8 nM.

In the case of `CC(C)C[C@H](NC(=O)[C@H](Cc1ccccc1)NC(=O)[C@H](CCCNC(=N)N)NC(=O)[C@H](CCC(N)=O)NC(=O)[C@H](CC(C)C)NC(=O)C(C)(C)NC(=O)[C@H](C)NC(=O)[C@H](CCC(=O)O)NC(=O)[C@H](CCC(=O)O)NC(=O)[C@H](Cc1c[nH]cn1)NC(=O)[C@H](CC(C)C)NC(=O)[C@H](Cc1ccc(O)cc1)NC(=O)[C@H](CO)NC(=O)[C@@H](NC(=O)[C@H](CC(=O)O)NC(=O)[C@H](CO)NC(=O)[C@@H](NC(=O)[C@H](Cc1ccccc1)NC(=O)[C@@H](NC(=O)CNC(=O)[C@H](CCC(=O)O)NC(=O)C(C)(C)NC(=O)[C@@H](N)Cc1c[nH]cn1)[C@@H](C)O)[C@@H](C)O)C(C)C)C(=O)N[C@@H](CCC(=O)O)C(=O)N[C@@H](CCCCNC(=O)COCCOCCNC(=O)COCCOCCNC(=O)CC[C@H](NC(=O)CCCCCCCCCCCCCCCCCCC(=O)O)C(=O)O)C(=O)N[C@@H](CC(C)C)C(=O)N[C@H](C(N)=O)C(C)C` [compound 164] (H-H[Aib]EGTFTSDVSYLHEEA[Aib]LQRFLEK([AEEA-AEEA-γGlu-C20 diacid])LV-NH2), at GLP1R, the EC50 was 0.02 nM and the “SCTR EC50/GLP1R EC50 ratio” value is on record as 11362. The compound further gave a Fibril formation in data set [1] of 4789. For the same compound, the “Turbidity (pH 7)” value in data set [2] is 0.08. Besides, at SCTR, the EC50 is 251 nM.

On to `CC(C)C[C@H](NC(=O)[C@H](Cc1ccccc1)NC(=O)[C@H](CCCNC(=N)N)NC(=O)[C@H](CCC(N)=O)NC(=O)[C@H](CC(C)C)NC(=O)C(C)(C)NC(=O)[C@H](C)NC(=O)[C@H](CCC(=O)O)NC(=O)[C@H](CCC(=O)O)NC(=O)[C@H](CCCCNC(=O)COCCOCCNC(=O)COCCOCCNC(=O)CC[C@H](NC(=O)CCCCCCCCCCCCCCCCCCC(=O)O)C(=O)O)NC(=O)[C@H](CC(C)C)NC(=O)[C@@H](NC(=O)[C@H](CO)NC(=O)[C@@H](NC(=O)[C@H](CC(=O)O)NC(=O)[C@H](CO)NC(=O)[C@@H](NC(=O)[C@H](Cc1ccccc1)NC(=O)[C@@H](NC(=O)CNC(=O)[C@H](CCC(=O)O)NC(=O)C(C)(C)NC(=O)[C@@H](N)Cc1c[nH]cn1)[C@@H](C)O)[C@@H](C)O)C(C)C)[C@@H](C)O)C(=O)N[C@@H](CCC(=O)O)C(=O)N[C@@H](Cc1c[nH]cn1)C(=O)N[C@@H](CC(C)C)C(=O)N[C@H](C(N)=O)C(C)C` [compound 165] (H-H[Aib]EGTFTSDVSTLK([AEEA-AEEA-γGlu-C20 diacid])EEA[Aib]LQRFLEHLV-NH2), for which, at GLP1R, the EC50 is 0.00631 nM and the “SCTR EC50/GLP1R EC50 ratio” value stood at 1693. The compound also showed a Fibril formation in data set [1] of 4038. Besides, the “Turbidity (pH 7)” value in data set [2] was 0.08. Also, on SCTR, the EC50 was 10 nM.

On to `CC(C)C[C@H](NC(=O)[C@H](Cc1ccccc1)NC(=O)[C@H](CCCNC(=N)N)NC(=O)[C@H](CCC(N)=O)NC(=O)[C@H](CC(C)C)NC(=O)C(C)(C)NC(=O)[C@H](C)NC(=O)[C@H](CCC(=O)O)NC(=O)[C@H](CCC(=O)O)NC(=O)[C@H](CCCCNC(=O)COCCOCCNC(=O)COCCOCCNC(=O)CC[C@H](NC(=O)CCCCCCCCCCCCCCCCCCC(=O)O)C(=O)O)NC(=O)[C@H](CC(C)C)NC(=O)[C@H](Cc1ccc(O)cc1)NC(=O)[C@H](CO)NC(=O)[C@@H](NC(=O)[C@H](CC(=O)O)NC(=O)[C@H](CO)NC(=O)[C@@H](NC(=O)[C@H](Cc1ccccc1)NC(=O)[C@@H](NC(=O)CNC(=O)[C@H](CCC(=O)O)NC(=O)[C@H](C)NC(=O)[C@@H](N)Cc1c[nH]cn1)[C@@H](C)O)[C@@H](C)O)C(C)C)C(=O)N[C@@H](CCC(=O)O)C(=O)N[C@@H](Cc1c[nH]cn1)C(=O)N[C@@H](CC(C)C)C(=O)N[C@H](C(N)=O)C(C)C` [compound 166] (H-HAEGTFTSDVSYLK([AEEA-AEEA-γGlu-C20 diacid])EEA[Aib]LQRFLEHLV-NH2), for which, at GLP1R, the EC50 was 0.00794 nM and the “SCTR EC50/GLP1R EC50 ratio” value turned out to be 41476. The same compound displayed a Fibril formation in data set [1] of 4253. Besides, the “Turbidity (pH 7)” value in data set [2] stood at 0.08. Also, the EC50 at SCTR was 316 nM.
